Tests used:
MGC-803 = experiment: Antiproliferative activity against human MGC-803 cells assessed as inhibition of cell proliferation measured after 72 hrs by MTT assay; format: functional, cell-based; details: MGC-803, 72 h
AGS = experiment: Antiproliferative activity against human AGS cells assessed as inhibition of cell proliferation measured after 72 hrs by MTT assay; format: functional, cell-based
A549 = experiment: Antiproliferative activity against human A549 cells assessed as inhibition of cell proliferation measured after 72 hrs by MTT assay; format: functional, cell-based; details: A549, 72 h
HGC-27 = experiment: Antiproliferative activity against human HGC-27 cells assessed as inhibition of cell proliferation measured after 72 hrs by MTT assay; format: functional, cell-based; details: HGC-27, 72 h
HCT-116 [1] = experiment: Antiproliferative activity against human HCT-116 cells assessed as inhibition of cell proliferation measured after 72 hrs by MTT assay; format: functional, cell-based; details: HCT-116, 72 h
MCF7 = experiment: Antiproliferative activity against human MCF7 cells assessed as inhibition of cell proliferation measured after 72 hrs by MTT assay; format: functional, cell-based; details: MCF7, 72 h
SGC-7901 = experiment: Antiproliferative activity against human SGC-7901 cells assessed as inhibition of cell proliferation measured after 72 hrs by MTT assay; format: functional, cell-based; details: SGC-7901, 72 h
HepG2 = experiment: Antiproliferative activity against human HepG2 cells assessed as inhibition of cell proliferation measured after 72 hrs by MTT assay; format: functional, cell-based; details: HepG2, 72 h
HCT-116 [2] = experiment: Induction of apoptosis in human HCT-116 cells assessed as viable cells at 20 uM measured after 48 hrs by Annexin V-FITC/PI staining based flow cytometry (reference value: 94.9%); format: functional; details: read-out: Activity
HCT-116 [3] = experiment: Induction of apoptosis in human HCT-116 cells assessed as necrotic cells at 20 uM measured after 48 hrs by Annexin V-FITC/PI staining based flow cytometry (reference value: 1.5%); format: functional
HCT-116 [4] = experiment: Induction of apoptosis in human HCT-116 cells assessed as early apoptotic cells at 20 uM measured after 48 hrs by Annexin V-FITC/PI staining based flow cytometry (reference value: 2.14%); format: functional
HCT-116 [5] = experiment: Induction of apoptosis in human HCT-116 cells assessed as late apoptotic cells at 20 uM measured after 48 hrs by Annexin V-FITC/PI staining based flow cytometry (reference value: 1.42%); format: functional

## COc1ccc2[nH]cc(CCNC(=O)c3ccccc3Nc3ccccc3)c2c1
MGC-803
  IC50: 12.8 µM
AGS
  IC50: > 30 µM
A549
  IC50: > 30 µM
HGC-27
  IC50: > 30 µM
HCT-116 [1]
  IC50: 24.7 µM
MCF7
  IC50: 29 µM
SGC-7901
  IC50: > 30 µM
HepG2
  IC50: > 30 µM

## Cc1cccc(Nc2ccccc2C(=O)NCCc2c[nH]c3ccccc23)c1C
MGC-803
  IC50: > 30 µM
AGS
  IC50: 16.6 µM
A549
  IC50: > 30 µM
HGC-27
  IC50: > 30 µM
HCT-116 [1]
  IC50: 14.4 µM
MCF7
  IC50: > 30 µM
SGC-7901
  IC50: > 30 µM
HepG2
  IC50: 21.7 µM

## COc1ccc(CCNc2ccccc2C(=O)NCCc2c[nH]c3ccccc23)cc1OC
MGC-803
  IC50: > 30 µM
AGS
  IC50: > 30 µM
A549
  IC50: > 30 µM
HGC-27
  IC50: > 30 µM
HCT-116 [1]
  IC50: > 30 µM
MCF7
  IC50: > 30 µM
SGC-7901
  IC50: > 30 µM
HepG2
  IC50: > 30 µM

## O=C(NCCc1c[nH]c2ccccc12)c1ccccc1NCc1ccccc1
MGC-803
  IC50: > 30 µM
AGS
  IC50: > 30 µM
A549
  IC50: > 30 µM
HGC-27
  IC50: 19.9 µM
HCT-116 [1]
  IC50: > 30 µM
MCF7
  IC50: > 30 µM
SGC-7901
  IC50: > 30 µM
HepG2
  IC50: > 30 µM

## CN(c1ccccc1)c1ccccc1C(=O)NCCc1c[nH]c2ccccc12
MGC-803
  IC50: 11.1 µM
AGS
  IC50: 14.7 µM
A549
  IC50: > 30 µM
HGC-27
  IC50: > 30 µM
HCT-116 [1]
  IC50: 17.2 µM
MCF7
  IC50: 19.6 µM
SGC-7901
  IC50: > 30 µM
HepG2
  IC50: 21.3 µM

## Cc1ccc(S(=O)(=O)Nc2ccccc2C(=O)NCCc2c[nH]c3ccccc23)cc1
MGC-803
  IC50: > 30 µM
AGS
  IC50: > 30 µM
A549
  IC50: > 30 µM
HGC-27
  IC50: > 30 µM
HCT-116 [1]
  IC50: > 30 µM
MCF7
  IC50: > 30 µM
SGC-7901
  IC50: > 30 µM
HepG2
  IC50: > 30 µM

## O=C(NCCc1c[nH]c2ccccc12)c1ccccc1NC1CCCC1
MGC-803
  IC50: > 30 µM
AGS
  IC50: > 30 µM
A549
  IC50: > 30 µM
HGC-27
  IC50: 19.3 µM
HCT-116 [1]
  IC50: > 30 µM
MCF7
  IC50: > 30 µM
SGC-7901
  IC50: > 30 µM
HepG2
  IC50: 28.8 µM

## Cc1cccc(Nc2ccccc2C(=O)NCCc2c[nH]c3ccc(O)cc23)c1C
MGC-803
  IC50: 16.5 µM
AGS
  IC50: 8.97 µM
A549
  IC50: > 30 µM
HGC-27
  IC50: 27 µM
HCT-116 [1]
  IC50: 22.2 µM
MCF7
  IC50: 25.3 µM
SGC-7901
  IC50: > 30 µM
HepG2
  IC50: 17 µM

## O=C(NCCc1c[nH]c2ccccc12)c1ccccc1NC1CCCCC1
MGC-803
  IC50: > 30 µM
AGS
  IC50: > 30 µM
A549
  IC50: > 30 µM
HGC-27
  IC50: 26.7 µM
HCT-116 [1]
  IC50: > 30 µM
MCF7
  IC50: > 30 µM
SGC-7901
  IC50: > 30 µM
HepG2
  IC50: 28.6 µM

## CNc1ccccc1C(=O)NCCc1c[nH]c2ccccc12
MGC-803
  IC50: > 30 µM
AGS
  IC50: > 30 µM
A549
  IC50: > 30 µM
HGC-27
  IC50: > 30 µM
HCT-116 [1]
  IC50: > 30 µM
MCF7
  IC50: > 30 µM
SGC-7901
  IC50: > 30 µM
HepG2
  IC50: > 30 µM

## COc1ccc2[nH]cc(CCNC(C)=O)c2c1 [MELATONIN]
MGC-803
  IC50: > 30 µM
AGS
  IC50: > 30 µM
A549
  IC50: > 30 µM
HGC-27
  IC50: > 30 µM
HCT-116 [1]
  IC50: > 30 µM
MCF7
  IC50: > 30 µM
SGC-7901
  IC50: > 30 µM
HepG2
  IC50: > 30 µM

## CN(C)c1ccccc1C(=O)NCCc1c[nH]c2ccccc12
MGC-803
  IC50: > 30 µM
AGS
  IC50: 22.6 µM
A549
  IC50: > 30 µM
HGC-27
  IC50: > 30 µM
HCT-116 [1]
  IC50: 16.6 µM
MCF7
  IC50: > 30 µM
SGC-7901
  IC50: > 30 µM
HepG2
  IC50: > 30 µM

## COc1ccc2[nH]cc(CCNC(=O)c3ccccc3Nc3cccc(Cl)c3C)c2c1
MGC-803
  IC50: 9.8 µM
AGS
  IC50: 16 µM
A549
  IC50: 17.8 µM
HGC-27
  IC50: 19.9 µM
HCT-116 [1]
  IC50: 20.4 µM
MCF7
  IC50: 25.3 µM
SGC-7901
  IC50: 27.9 µM
HepG2
  IC50: 21.9 µM

## O=C(NCCc1c[nH]c2ccccc12)c1ccccc1NC1CC1
MGC-803
  IC50: > 30 µM
AGS
  IC50: > 30 µM
A549
  IC50: > 30 µM
HGC-27
  IC50: 28.3 µM
HCT-116 [1]
  IC50: > 30 µM
MCF7
  IC50: > 30 µM
SGC-7901
  IC50: > 30 µM
HepG2
  IC50: 28.4 µM

## O=C(NCCc1c[nH]c2ccccc12)c1ccccc1NCCCCO
MGC-803
  IC50: > 30 µM
AGS
  IC50: > 30 µM
A549
  IC50: > 30 µM
HGC-27
  IC50: > 30 µM
HCT-116 [1]
  IC50: > 30 µM
MCF7
  IC50: > 30 µM
SGC-7901
  IC50: > 30 µM
HepG2
  IC50: > 30 µM

## O=c1[nH]cc(F)c(=O)[nH]1 [FLUOROURACIL]
MGC-803
  IC50: 29.2 µM
HCT-116 [2]
  viability at 20 µM: 81.3%
AGS
  IC50: 11 µM
A549
  IC50: > 30 µM
HGC-27
  IC50: > 30 µM
HCT-116 [1]
  IC50: 6.1 µM
HCT-116 [3]
  Activity: 2.69%
MCF7
  IC50: 13.2 µM
SGC-7901
  IC50: > 30 µM
HCT-116 [4]
  Activity: 5.54%
HepG2
  IC50: > 30 µM
HCT-116 [5]
  Activity: 10.4%

From ChEMBL document CHEMBL4818998, “Melatonin derivatives combat with inflammation-related cancer by targeting the Main Culprit STAT3” (Eur J Med Chem, 2021)
